Results as given in PMC9423655, “Huntington’s disease phenotypes are improved via mTORC1 modulation by small molecule therapy” (PLoS ONE, 2022).
Like-named read-outs stand apart in the source and are kept apart here.

Tests used:
[1] = tested on: mTORC1; assay: mTORC1 activation (pS6K1 immunoblot) in leucine-starved HEK293T cells; type: cell-based; conditions: HEK293T cells starved of leucine 50 minutes, treatment 10 minutes
Description: (§1) All cell lines were cultured in DMEM (Corning, #MT10013CV) supplemented with 10% heat-inactivated FBS (Gibco, #16140–071). All cell lines were maintained at 37°C and 5% CO2. For amino acid starvation, cells were rinsed once with and incubated Amino acid-free RPMI (US Biologicals, #R8999-04A) supplemented with 10% dialyzed FBS (Gibco, #26400044) for 50 min followed by treatment with NV-5297, leucine, or vehicle for 10 minutes. For leucine starvation, cells were rinsed once with and incubated in leucine-free DMEM (AthenaES, #0420) supplemented with 10% dialyzed FBS (Gibco, #26400044) for 50 minuted followed by treatment with NV-5297, leucine, or vehicle for 10 minutes.
(A) Activation of the mTORC1 pathway by NV-5297. […] (B) NV-5297 disrupts Sestrin2/GATOR2 in the in vitro Sesn2/WDR24 protein-protein interaction assay in a dose-dependent manner. […] Representative immunoblots of ^T389pS6K1 and quantification of the normalized level of ^T389pS6K1 from 8 independent experiments (F) show TORC1 activity in unedited HEK-293T cells, HEK-293T cells deficient for Sestrin 1 (Sesn1), 2 (Sesn2) and 3 (Sesn3) (D) or HEK-293T cells deficient for the GATOR1 component Nprl3 (E) after 50 minutes leucine starvation followed by the addition of vehicle, NV-5297 or leucine for 10 minutes. […]

[2] = Pharmacokinetic analysis of NV-5297 in mice (i.v. and oral, LC-MS/MS); type: in vivo; conditions: C57BL/6 mice
Description: […] Mice were given free access to food and water for both i.v. and orally dosed groups. After dosing, tail-vein blood was collected at the indicated time points into K2EDTA tubes and centrifuged at 2,000g for 5 minutes to collect serum. Levels of NV-5297 were quantified via LC-MS/MS. WinNonlin V 6.2 statistics software (Pharsight Corporation, California, USA) was used to generate pharmacokinetics parameters using non-compartmental model.
PK parameters of NV-5297 after an IV dose at 1 mg/kg
PK parameters Unit Estimate
PK parameters of NV-5297 after an OD dose at 5 mg/kg

[3] = tested on: Npr13KO HEK293T cells; assay: mTORC1 activation (p70S6K1) in HEK293T cells null for GATOR1 component Nprl3; type: cell-based; conditions: leucine-starved 50 minutes, treatment 10 minutes
Description: as §1
To ascertain if Sestrins and the GATOR pathway are required for NV-5297 activity, we tested mTORC1 activation in cells null for either all three Sestrin isoforms [SesnTKO] or for the GATOR1 component Npr13 [Npr13KO] [44]. […]
(A) Activation of the mTORC1 pathway by NV-5297. […] Representative immunoblots of ^T389pS6K1 and quantification of the normalized level of ^T389pS6K1 from 8 independent experiments (F) show TORC1 activity in unedited HEK-293T cells, HEK-293T cells deficient for Sestrin 1 (Sesn1), 2 (Sesn2) and 3 (Sesn3) (D) or HEK-293T cells deficient for the GATOR1 component Nprl3 (E) after 50 minutes leucine starvation followed by the addition of vehicle, NV-5297 or leucine for 10 minutes. […]

[4] = tested on: mTORC1 pathway (pS6); assay: pS6 immunoblot of tissues after one oral dose in C57BL/6 mice; type: in vivo; conditions: single oral 160 mg/kg
Description: Specific regions of the brain and heart were homogenized using a Next Advance Bullet Blender Storm in Lysis Buffer (Cell lysis buffer: 1% Triton X-100, 50 mM HEPES pH 7.4, 100 mM sodium chloride, 2 mM EDTA, 10 mM Beta-glycerophosphate, 10 mM Sodium pyrophosphate, and 1 protease inhibitor) at 4°C. Lysates were cleared by centrifugation at 13,200 rpm at 4°C for 10 minutes. Equal amounts of total protein from each sample were denatured and, resolved by SDS-PAGE. Membranes were imaged using the LI-COR imaging system. Proteins levels are normalized to tubulin, actin or GAPDH levels and further normalized to vehicle treated mice for each tissue.
Fig 1 NV-5297 is a leucine analog activating the mTORC1 pathway in the brain and peripheral tissues. (A) NV-5297 chemical structure. Representative immunoblots of phosphorylated S6 (^S240/244pS6) from homogenized tissues from C57BL/6 mice orally dosed once with NV-5297 (160 mg/kg) and sacrificed 1 hour later (B) and quantification of the immunoblots normalized to loading controls and vehicle treated mice (n = 10 per treatment) (C). […]

[5] = male, mouse, serum, IV dose at 1 mg/kg
[6] = male, mouse, serum, OD (oral) dose at 5 mg/kg

## CC(C)(C[C@H](N)C(=O)O)C(F)(F)F [NV-5297, (S)-2-amino-5,5,5-trifluoro-4,4-dimethylpentanoic acid]
[1]
  mTORC1 activation measured by phosphorylated S6K1 (pS6K1 / p70S6K1): activates mTORC1 in leucine-starved HEK293T cells in a dose-dependent manner
[2]; OD (oral) dose at 5 mg/kg
  Cmax: 2893 ng/mL
[2]; male, mouse, serum, po, 160 mg/kg, refers to S1 Table, read-out: oral bioavailability
  bioavailability: 100%
[2]; male, mouse, serum, oral, 160 mg/kg, refers to S1 Table, read-out: half-life (converted)
  half-life: ~3 h
[2]; male, mouse, serum, oral, 160 mg/kg, refers to S1 Table, read-out: time to maximal concentration (tmax) (converted)
  Tmax: 0.5 h
[2]; [5]
  AUC(0-inf): 1240 ng·h/mL
  AUC(0-t): 1220 ng·h/mL
  MRT inf: 1.56 h
  clearance: 13.3 mL/min/kg
[2]; male, mouse, serum, IV dose at 1 mg/kg, read-out: Terminal T1/2 (converted)
  half-life: 1.45 h
[2]; male, mouse, serum, IV dose at 1 mg/kg, read-out: Vss
  Vd: 1.26 L/kg
[2]; male, mouse, serum, OD (oral) dose at 5 mg/kg vs IV 1 mg/kg, read-out: F (bioavailability)
  bioavailability: 104%
[2]; [6]
  AUC(0-inf): 6470 ng·h/mL
  AUC(0-t): 6460 ng·h/mL
[2]; male, mouse, serum, OD (oral) dose at 5 mg/kg, read-out: Terminal T1/2 (converted)
  half-life: 2.86 h
[2]; male, mouse, serum, OD (oral) dose at 5 mg/kg, read-out: Tmax
  Tmax: 0.5 h
[3]
  p70S6K1 levels: remained unchanged
[4]; sacrificed 1 hour later
  pS6 in brain regions relative to controls: increased pS6 in all regions sampled
[4]; tissues collected 1 hour later
  pS6 in peripheral tissues relative to vehicle: increased pS6
